Measured values: patent publication US6201015A, “Therapeutic method for thrombocytopathy treatment” (priority 1996, dated 2001)
Where two headings read alike, the source gives them in different places.

Tests used:
[1] = test system: platelets (platelet rich plasma); assay: Antagonistic Action on Inhibition of Platelet Aggregation (ADP-induced, SQ-29548 present, BPS or PGD2 as inhibitor); format: cell-based, human (healthy subject); conditions: for IC50: Homo sapiens, Platelet, ADP-induced aggregation, SQ-29548
Method: A blood specimen sampled from a healthy subject was centrifuged to thereby separate platelet rich plasma (PRP) and platelet poor plasma (PPP). To the PRP was added SQ-29548, a TXA2 antagonist, and then Compound 1 was added one minute after, beraprost sodium (BPS), a prostacyclin derivative, or prostaglandin D2 (PGD2) was added to the PRP, and 1 minute thereafter, aggregation was induced by ADP. The 50% inhibitory concentration (IC50) of BPS or PGD2 was then calculated from the results. The experiment was performed on one group composed of three specimens. The results are set forth in Tables 3 and 4 (*: P<0.05, Paired t-test).

[2] = test system: cAMP in the platelets; assay: cAMP concentration in platelets stimulated with BPS (EIA kit); format: cell-based, human (healthy subject); conditions: for cyclic AMP (× basal level): SQ-29548, five cases
Method: A blood specimen taken from a healthy subject was centrifuged to thereby separate platelet rich plasma (PRP). To PRP was added SQ-29548, a TXA2 antagonist, and then Compound 1 was added thereto. After 1 minute, BPS (100 nM) was added to PRP, and then the reaction was stopped by 5% TCA. Thereafter, cAMP in the platelets was extracted and the cAMP concentration was determined with an EIA kit (BIOTRAK cAMP EIA SYSTEM, Amersham). The experiment was carried out on one group composed of five cases. The results are shown in Table 5 (*: P<0.05, Paired t-test).

[3] = test system: platelets (platelet rich plasma); assay: Action on Platelet Aggregation (3): ADP-induced platelet aggregation in the presence of SQ-29548; format: cell-based, human (healthy subject); conditions: concentration within the range of 0.1 to 10 μM, Control 38 ± 4.9, *P<0.05 paired t-test
Method: A blood specimen taken from a healthy subject was centrifuged to thereby separate platelet rich plasma (PRP) and platelet poor plasma (PPP). To PRP was added SQ-29548, a TXA2 antagonist, and 1 minute after, platelet aggregation was induced by ADP, and immediately after induction, any of Compounds 2 to 4 having the following structural formulae was added to PRP. The experiment was performed on one group comprising three subjects. The results are set forth in Table 6 (*: P<0.05, Paired t-test).
Compound 2 to 4 were respectively used at a concentration within the range of 0.1 to 10 μM.

[4] = test system: platelets (platelet rich plasma); assay: Action on Platelet Aggregation (2): ADP-induced platelet aggregation in the presence of SQ-29548; format: cell-based, human (healthy subject)
Method: A blood specimen sampled from a healthy subject was centrifuged to thereby separate platelet rich plasma (PRP) and platelet poor plasma (PPP). SQ-29548, a TXA2 antagonist, was added to PRP, and 1 minute later, platelet aggregation was induced by ADP, and immediately after induction, Compound 1 was added thereto. The experiment was carried out on one group comprising three samples. The test results are shown in Table 2 (*: P<0.05, Paired t-test).

[5] = test system: platelets (platelet rich plasma); assay: Action on Platelet Aggregation (1): aggregation induction in PRP in the presence of SQ-29548; format: cell-based, human (healthy subject); conditions: for Number of Aggregation Induction: PRP with SQ-29548, three samples
Method: A blood specimen sampled from a healthy subject was centrifuged to thereby separate platelet rich plasma (PRP) and platelet poor plasma (PPP). The agent SQ-29548 (refer to Prostaglandins, 1985;29;785), a TXA2 antagonist, was added to PRP, and 1 minute later, a test drug having the following structure (hereinafter referred to as "Compound 1") was added thereto. The experiment was conducted on one group comprising three samples.

[6] = test system: platelets; conditions: background; cited from earlier work
[7] = background; cited from earlier work
[8] = cited from earlier work
[9] = cited from earlier work; remark: listed apart in the source

Q: For `CC#CCC(C)[C@H](O)/C=C/[C@@H]1[C@H]2c3cccc(CCCC(=O)O)c3O[C@H]2C[C@H]1O` (mixture of isomers) [BPS, beraprost sodium], which IC50 ([1]; Compound 1 0 μM, read-out: IC50 of BPS) is on record?
A: The IC50 was 7.99 ± 1.4 nM.

Q: What about the IC50 ([1]; in the presence of Compound 1 0.1 μM, read-out: IC50 of BPS) of the same molecule?
A: Its IC50 is 21.1 ± 4.7 nM.

Q: And the IC50 ([1]; in the presence of Compound 1 1 μM, *P<0.05, read-out: IC50 of BPS)?
A: Its IC50 is 36.7 ± 7.4 nM.

Q: What about the “cyclic AMP (× basal level)” value ([2]; BPS 100 nM, Compound 1 0 μM) of the same molecule?
A: The value was 8.46 ± 1.8 × basal level.

Q: With `CCCCC(C)(C)[C@H](O)/C=C/[C@@H]1[C@H]2c3cccc(CCC(=O)O)c3O[C@H]2C[C@H]1O` (relative stereo) [Compound 2] as the molecule, how does the “Platelet Aggregation Rate” value [3] read?
A: Its value is 45 ± 6.1%.

Q: For `CC(C)(Oc1ccccc1)[C@H](O)/C=C/[C@@H]1[C@H]2c3cccc(CCC(=O)O)c3O[C@H]2C[C@H]1O` (relative stereo) [Compound 4], which “Platelet Aggregation Rate” value [3] is on record?
A: The value was 54 ± 4.1%.

Q: With `CC(C)(Oc1ccccc1)[C@H](O)/C=C/[C@@H]1[C@H]2c3cccc(CCC(=O)O)c3O[C@H]2C[C@H]1O` [Compound 1] as the molecule, how does the “antagonism of inhibition of platelet aggregation (in words)” value ([1]; Compound 1 0.1 and 1 μM against BPS or PGD2) read?
A: Its value is “physiologically antagonized inhibitory actions of BPS and PGD2 on platelet aggregation”.

Q: What about the “effect on cAMP production (in words)” value ([2]; BPS 100 nM, Compound 1 0.1 and 1 μM) of the same molecule?
A: The value was “inhibited cAMP production of BPS in platelets”.

Q: What about the “cyclic AMP (× basal level)” value ([2]; Compound 1 0.1 μM with BPS 100 nM, *P<0.05) of the same molecule?
A: Its value is 6.45 ± 1.4 × basal level.

Q: What about the “cyclic AMP (× basal level)” value ([2]; Compound 1 1 μM with BPS 100 nM, *P<0.05) of the same molecule?
A: The value was 3.98 ± 0.9 × basal level.

Q: What about the “Platelet Aggregation Rate” value ([4]; Compound 1 0.1 μM, without Compound 1: 52.0 ± 2.5, *P<0.05 paired t-test) of the same molecule?
A: Its value is 61.3 ± 2.9%.

Q: And the “Platelet Aggregation Rate” value ([4]; Compound 1 1 μM, without Compound 1: 52.0 ± 2.5, asterisk not given)?
A: Its value is 70.0 ± 3.0%.

Q: What about the “effect on aggregation of platelets (in words)” value ([4]; Compound 1 0.1 and 1 μM) of the same molecule?
A: The value was “enhanced aggregation of platelets”.

Q: What about the “Number of Aggregation Induction” value ([5]; Compound 1 0.1 μM) of the same molecule?
A: The value was 0.

Q: What about the “Number of Aggregation Induction” value ([5]; Compound 1 1 μM) of the same molecule?
A: The value was 0.

Q: What about the “Number of Aggregation Induction” value ([5]; Compound 1 10 μM) of the same molecule?
A: Its value is 0.

Q: And the “induction of platelet aggregation (in words)” value ([5]; in the presence of SQ-29548, 0.1-10 μM)?
A: The value was “did not induce platelet aggregation”.

Q: For `O=C(O)CCc1cccc2c1OC1CC(O)C(C=CC(O)COc3ccccc3)C21` (centres unmarked) [Compound 3], which “Platelet Aggregation Rate” value [3] is on record?
A: The value was 43 ± 5.3%.

Q: Which “known activity (in words)” value [6] does the source give for `CCCCC[C@H](O)/C=C/[C@@H]1[C@@H](CC(=O)CCCCC(=O)O)[C@@H](O)C[C@H]1O` [Compound 6-oxo-PGF1a, 6-oxo-PGF1a] here?
A: The value was “almost no physiological activity”.

Q: Which “adverse drug reactions (in words)” value [7] does the source give for `NC(=O)CC[C@@H]1NC(=O)[C@H](Cc2ccccc2)NC(=O)[C@H](Cc2ccc(O)cc2)NC(=O)CCSSC[C@@H](C(=O)N2CCC[C@H]2C(=O)N[C@H](CCCN=C(N)N)C(=O)NCC(N)=O)NC(=O)[C@H](CC(N)=O)NC1=O` [DDAVP, 1-diamino 8-D-arginine vasopressin] here?
A: The value was “may induce arterial thrombosis and/or hyponatremia”.

Q: What does the source list for `CCCCC[C@H](O)/C=C/[C@H]1C(=O)C[C@H](O)[C@@H]1C/C=C\CCCC(=O)O` [PGD2, prostaglandin D2]?
A: IC50 ([1]; Compound 1 0 μM, read-out: IC50 of PGD2): 38.8 ± 2.5 nM; IC50 ([1]; in the presence of Compound 1 0.1 μM, read-out: IC50 of PGD2): 71.2 ± 8.2 nM; IC50 ([1]; in the presence of Compound 1 1 μM, *P<0.05, read-out: IC50 of PGD2): 194 ± 28 nM

Q: With `CCCCC[C@H](O)/C=C/[C@@H]1[C@H]2C/C(=C/CCCC(=O)O)O[C@H]2C[C@H]1O` [PGI2, prostaglandin I2] as the molecule, how does the “stability in neutral aqueous solution (in words)” value [8] read?
A: The value was “extremely unstable even in a neutral aqueous solution”.

Q: What about the “stability and duration of activity in vivo (in words)” value [9] of the same molecule?
A: The value was “unstable in vivo and its activity is not long-lasting”.

Q: And the “known activity (in words)” value [6]?
A: The value was “strong antiplatelet activity and telangiectatic activity”.
